# Data taken from patent US8097654B2, “Radiolabeled 3-[3-(benzoyl-amido)benzyloxy]aspartic acid derivative and method of producing the same” (Suntory Holdings Limited, priority 2004, dated 2012).
# What was measured:
# [1] = Octanol-water partition coefficient (Log P); assay type: physicochemical; details: octanol/phosphate buffer, mean ± S.D.
# Method: Equal amounts of octanol and a phosphate buffer were mixed together and [^125I]I-BzA-TBOA was added thereto. After repeatedly shaking for 1 minute and allowing to stand for 1 minute three times, the mixture was allowed to stand for 20 minutes. After repeating this procedure three times, it was centrifuged (1,000×g, 10 min, 4° C.) and the radioactivity of each layer was measured. Thus, the partition coefficient was calculated (Table 1).
# [2] = Biodistribution of radioactivity after intravenous injection in mice; details: mean ± S.D.
# EAAT2 = EAAT2 (Homo sapiens, UniProt P43004); test: Inhibition of [14C]-glutamic acid uptake by EAAT2 expressed in MDCK or COS-1 cells; assay type: cell-based; design: expressed in transfected cells; details: glutamate transporter, subtype not given
# Sequence of EAAT2 (P43004 whole entry): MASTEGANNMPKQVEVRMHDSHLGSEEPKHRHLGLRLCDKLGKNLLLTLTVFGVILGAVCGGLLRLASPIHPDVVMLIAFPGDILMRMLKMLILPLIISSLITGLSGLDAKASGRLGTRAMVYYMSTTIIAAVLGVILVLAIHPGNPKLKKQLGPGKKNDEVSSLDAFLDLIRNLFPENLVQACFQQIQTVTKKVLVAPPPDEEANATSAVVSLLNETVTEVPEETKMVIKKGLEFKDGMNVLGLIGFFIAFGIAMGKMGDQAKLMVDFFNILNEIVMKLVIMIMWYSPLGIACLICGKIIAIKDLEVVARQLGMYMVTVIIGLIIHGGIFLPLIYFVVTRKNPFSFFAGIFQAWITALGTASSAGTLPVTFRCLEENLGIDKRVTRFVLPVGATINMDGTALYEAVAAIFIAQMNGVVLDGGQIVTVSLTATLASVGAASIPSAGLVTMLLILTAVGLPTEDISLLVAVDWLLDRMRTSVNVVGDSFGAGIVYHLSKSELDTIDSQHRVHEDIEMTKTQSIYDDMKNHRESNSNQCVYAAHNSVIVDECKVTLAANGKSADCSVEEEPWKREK
# Method: In accordance with a known method (Shimamoto, K. et al., Mol. Pharmacol. 53, 195-201, 1998; Bioorg. Med. Chem. Lett. 10, 2407-2410, 2000), the inhibitory activity was assayed as the ability to inhibit the uptake of [^14C]-glutamic acid by human EAAT2 and EAAT3 stably expressed in MDCK (Madin-Darby canine kidney) cells or transiently expressed in COS-1 cells. The glutamate uptake activity was assayed by incubating a mixture of 1 μM of L-[^14C]-glutamic acid with a sample compound at a predetermined concentration for 12 minutes, lysing the cells and then measuring the radioactivity incorporated into the cells with a liquid scintillator. The amount of uptake was expressed in percentage by referring the amount of uptake in the absence of a test compound (i.e., the buffer alone) as 100% and referring the amount of uptake in a sodium-free solution as 0%.
# [3] = 2 min after i.v. administration
# [4] = 5 min after i.v. administration
# [5] = 15 min after i.v. administration
# [6] = 30 min after i.v. administration
smiles,measurement,setting,value
"N[C@H](C(=O)O)[C@H](OCc1cccc(NC(=O)c2ccc([125I])cc2)c1)C(=O)O [[^125I]I-BzA-TBOA, (2S,3S)-3-[3-(4-[^125I]iodobenzoylamino)benzyloxy]aspartic acid]",Octanol/water partition coefficient (Log P),[1]; PH 3.0,0.641 ± 0.006
same,Octanol/water partition coefficient (Log P),[1]; PH 7.0,−0.821 ± 0.003
same,Octanol/water partition coefficient (Log P),[1]; PH 7.4,−0.849 ± 0.006
same,Octanol/water partition coefficient (Log P),[1]; PH 8.0,−0.936 ± 0.007
same,Radioactivity in Blood,[2]; [3],2.29 ± 0.23 percentage of injection dose per gram of each tissue
same,Radioactivity in Blood,[2]; [4],1.58 ± 0.25 percentage of injection dose per gram of each tissue
same,Radioactivity in Blood,[2]; [5],0.67 ± 0.19 percentage of injection dose per gram of each tissue
same,Radioactivity in Blood,[2]; [6],0.40 ± 0.12 percentage of injection dose per gram of each tissue
same,Radioactivity in Blood,[2]; 1 hr after i.v. administration,0.16 ± 0.04 percentage of injection dose per gram of each tissue
same,Radioactivity in Blood,[2]; 2 hr after i.v. administration,0.07 ± 0.01 percentage of injection dose per gram of each tissue
same,Radioactivity in Brain,[2]; [3],0.21 ± 0.09 percentage of injection dose per gram of each tissue
same,Radioactivity in Brain,[2]; [4],0.19 ± 0.18 percentage of injection dose per gram of each tissue
same,Radioactivity in Brain,[2]; [5],0.06 ± 0.09 percentage of injection dose per gram of each tissue
same,Radioactivity in Brain,[2]; [6],0.10 ± 0.13 percentage of injection dose per gram of each tissue
same,Radioactivity in Brain,[2]; 1 hr after i.v. administration,0.01 ± 0.02 percentage of injection dose per gram of each tissue
same,Radioactivity in Brain,[2]; 2 hr after i.v. administration,0.18 ± 0.23 percentage of injection dose per gram of each tissue
same,Radioactivity in Heart,[2]; [3],0.93 ± 0.06 percentage of injection dose per gram of each tissue
same,Radioactivity in Heart,[2]; [4],0.64 ± 0.13 percentage of injection dose per gram of each tissue
same,Radioactivity in Heart,[2]; [5],0.33 ± 0.04 percentage of injection dose per gram of each tissue
same,Radioactivity in Heart,[2]; [6],0.19 ± 0.14 percentage of injection dose per gram of each tissue
same,Radioactivity in Heart,[2]; 1 hr after i.v. administration,0.04 ± 0.02 percentage of injection dose per gram of each tissue
same,Radioactivity in Heart,[2]; 2 hr after i.v. administration,0.00 ± 0.00 percentage of injection dose per gram of each tissue
same,Radioactivity in Intestine,[2]; [3],1.76 ± 0.15 percentage of injection dose per gram of each tissue
same,Radioactivity in Intestine,[2]; [4],4.51 ± 1.36 percentage of injection dose per gram of each tissue
same,Radioactivity in Intestine,[2]; [5],12.28 ± 0.72 percentage of injection dose per gram of each tissue
same,Radioactivity in Intestine,[2]; [6],15.91 ± 1.65 percentage of injection dose per gram of each tissue
same,Radioactivity in Intestine,[2]; 1 hr after i.v. administration,20.05 ± 6.29 percentage of injection dose per gram of each tissue
same,Radioactivity in Intestine,[2]; 2 hr after i.v. administration,23.69 ± 1.58 percentage of injection dose per gram of each tissue
same,Radioactivity in Kidney,[2]; [3],15.17 ± 2.34 percentage of injection dose per gram of each tissue
same,Radioactivity in Kidney,[2]; [4],16.02 ± 0.57 percentage of injection dose per gram of each tissue
same,Radioactivity in Kidney,[2]; [5],14.47 ± 2.59 percentage of injection dose per gram of each tissue
same,Radioactivity in Kidney,[2]; [6],8.29 ± 2.63 percentage of injection dose per gram of each tissue
same,Radioactivity in Kidney,[2]; 1 hr after i.v. administration,2.08 ± 0.15 percentage of injection dose per gram of each tissue
same,Radioactivity in Kidney,[2]; 2 hr after i.v. administration,1.03 ± 0.23 percentage of injection dose per gram of each tissue
same,Radioactivity in Liver,[2]; [3],28.71 ± 1.97 percentage of injection dose per gram of each tissue
same,Radioactivity in Liver,[2]; [4],22.52 ± 4.43 percentage of injection dose per gram of each tissue
same,Radioactivity in Liver,[2]; [5],11.11 ± 0.24 percentage of injection dose per gram of each tissue
same,Radioactivity in Liver,[2]; [6],4.96 ± 1.65 percentage of injection dose per gram of each tissue
same,Radioactivity in Liver,[2]; 1 hr after i.v. administration,1.95 ± 0.46 percentage of injection dose per gram of each tissue
same,Radioactivity in Liver,[2]; 2 hr after i.v. administration,1.50 ± 0.43 percentage of injection dose per gram of each tissue
same,Radioactivity in Lung,[2]; [3],3.11 ± 0.22 percentage of injection dose per gram of each tissue
same,Radioactivity in Lung,[2]; [4],2.44 ± 0.59 percentage of injection dose per gram of each tissue
same,Radioactivity in Lung,[2]; [5],1.39 ± 0.12 percentage of injection dose per gram of each tissue
same,Radioactivity in Lung,[2]; [6],0.64 ± 0.42 percentage of injection dose per gram of each tissue
same,Radioactivity in Lung,[2]; 1 hr after i.v. administration,0.26 ± 0.06 percentage of injection dose per gram of each tissue
same,Radioactivity in Lung,[2]; 2 hr after i.v. administration,0.10 ± 0.02 percentage of injection dose per gram of each tissue
same,Radioactivity in Pancreas,[2]; [3],2.10 ± 0.24 percentage of injection dose per gram of each tissue
same,Radioactivity in Pancreas,[2]; [4],2.13 ± 0.26 percentage of injection dose per gram of each tissue
same,Radioactivity in Pancreas,[2]; [5],0.94 ± 0.02 percentage of injection dose per gram of each tissue
same,Radioactivity in Pancreas,[2]; [6],0.33 ± 0.23 percentage of injection dose per gram of each tissue
same,Radioactivity in Pancreas,[2]; 1 hr after i.v. administration,0.10 ± 0.06 percentage of injection dose per gram of each tissue
same,Radioactivity in Pancreas,[2]; 2 hr after i.v. administration,0.06 ± 0.04 percentage of injection dose per gram of each tissue
same,Radioactivity in Spleen,[2]; [3],1.11 ± 0.12 percentage of injection dose per gram of each tissue
same,Radioactivity in Spleen,[2]; [4],0.65 ± 0.12 percentage of injection dose per gram of each tissue
same,Radioactivity in Spleen,[2]; [5],0.30 ± 0.04 percentage of injection dose per gram of each tissue
same,Radioactivity in Spleen,[2]; [6],0.11 ± 0.07 percentage of injection dose per gram of each tissue
same,Radioactivity in Spleen,[2]; 1 hr after i.v. administration,0.03 ± 0.04 percentage of injection dose per gram of each tissue
same,Radioactivity in Spleen,[2]; 2 hr after i.v. administration,0.03 ± 0.03 percentage of injection dose per gram of each tissue
same,Radioactivity in Stomach,[2]; [3],1.12 ± 0.20 percentage of injection dose per gram of each tissue
same,Radioactivity in Stomach,[2]; [4],0.78 ± 0.22 percentage of injection dose per gram of each tissue
same,Radioactivity in Stomach,[2]; [5],0.88 ± 0.13 percentage of injection dose per gram of each tissue
same,Radioactivity in Stomach,[2]; [6],0.58 ± 0.40 percentage of injection dose per gram of each tissue
same,Radioactivity in Stomach,[2]; 1 hr after i.v. administration,0.74 ± 0.80 percentage of injection dose per gram of each tissue
same,Radioactivity in Stomach,[2]; 2 hr after i.v. administration,0.48 ± 0.19 percentage of injection dose per gram of each tissue
N[C@H](C(=O)O)[C@H](OCc1cccc(NC(=O)c2ccc(F)cc2)c1)C(=O)O [F-BzA-TBOA],IC50 for glutamate transporter (in words),EAAT2,several ten nM order
